Assay results published in patent US11517591B2, “Immunogenic peptides specific to BCMA and TACI antigens” (Dana-Farber Cancer Institute, Inc., priority 2017, dated 2022).

Experiments:
[1] = target: T1, HLA-A2 molecule (Homo sapiens, UniProt P04439, D140Y/D185E/D98H/E176V/E277Q/G131W/G231S/I119V/I121R/I166T/I218V/L300P/L318F/N151K/N90K/P208A/P217A/Q86G/Q94H/R138H/R169H/T345S); experiment: Peptide/HLA-A2 complex stability on peptide-loaded T2 cells post-brefeldin A; type: binding
T1 construct: endogenous in cells; host or cells: T2 cell line (human B and T cell hybrid), provided by Dr. J. Molldrem
Description: The native and heteroclitic BCMA and TACI peptides were examined for HLA-A2 binding stability using the T2 cell line. T2 cells were pulsed with the respective peptide. After overnight incubation, the cells were washed to remove unbound peptide; they were evaluated for binding affinity as shown above and stability as following. The cells were incubated with 10 μg/ml Brefeldin A (Sigma) at 37° C. and 5% CO2 for 1 hour to block cell surface expression of newly synthesized HLA-A2 molecules. Peptide/HLA-A2 binding stability was evaluated at 0, 2, 4, 6 and 18 hours post-Brefeldin A treatment. Following the incubation period, the cells were harvested, washed, stained with mouse anti-human HLA-A2-FITC mAb and analyzed by flow cytometry. […] Therefore, the Heteroclitic #4 BCMA72-80 (YLMFLLRKI (SEQ ID NO: 13)) and Heteroclitic #3. TACI154-162 (YLSADQVAL (SEQ ID NO: 16) peptides were selected for further evaluation of their immunogenic potential to generate MM-specific cytotoxic T cells (CTLs).
(§1) T2 cells were pulsed overnight with various doses of peptide plus β2-microglobulin (3 μg/ml) (Sigma, St Louis, Mo.). Following overnight incubation, the cells were stained with HLA-A2-PE mAb and analyzed using a FACSCanto™ flow cytometer (BD). Peptide/HLA-A2 complex stability was measured on peptide loaded T2 cells at 0, 2, 4, 6 and 14 hours post-brefeldin A treatment by staining with HLA-A2-PE mAb and flow cytometric analysis.
as §1, with “concentrations” for “doses”, “The stability of peptide/HLA-A2” for “Peptide/HLA-A2”, “binding” for “stability”, “treatment followed” for “treatment”

[2] = system: peripheral blood mononuclear cells from HLA-A2+ normal donors; experiment: Generation and phenotypic characterization of BCMA-CTL stimulated with free or nanoparticle-encapsulated BCMA peptide; type: cell-based, human
Description: BCMA peptide-specific CTL (BCMA-CTL) were generated ex vivo by repeated stimulation of peripheral blood mononuclear cells isolated from HLA-A2^+ normal donors' with (1) HLA-A2 specific BCMA immunogenic peptide (50 ug/ml), (2) a blank nanoparticle (PLGA or liposome) without peptide, or (3) the BCMA peptide (50 ug/ml) encapsulated nanoparticle (PLGA/peptide or liposome/peptide). PBMC were cultured in DMEM medium supplemented with 10% human AB serum (BioWhittaker) and pulsed weekly with the appropriate BCMA peptide for a total of 4 or 5 cycles. IL-2 (50 U/ml) was added to the T cell cultures two days after the second stimulation.
BCMA peptide-specific CD8^+ CTL were evaluated for Naïve: Memory cell development and expression of CD28 co-stimulatory molecule by flow cytometry. In addition, BCMA peptide-specific CD8^+ CTL were assessed within the cultures by staining with BCMA peptide-specific Tetramer-PE. Following tetramer staining at 37° C. for 30 min, cells were washed and stained with CD8-FITC and CD28-APC mAbs. After staining, cells were washed, fixed in 2% paraformaldehyde, acquired using a LSRII Fortessa™ flow cytometer, and analyzed using FACS DIVA™ v8.0 (BD) or FlowJo v10.0.7 (Tree star, Ashland, Oreg.) software. BCMA-CTL were analyzed for the presence\frequency of specific memory (central memory, effector memory)/non-memory populations within the total gated CD3^+CD8^+ T cell population.

[3] = after the 5-cycle of peptide stimulation

- HLA-A2 stability of heteroclitic vs native BCMA peptide ([1]; Example 12): further enhanced
Sequence: YLMFLLRKI [heteroclitic BCMA72-80, heteroclitic BCMA peptide]
- HLA-A2 binding stability, heteroclitic vs native peptide ([1]; 50 ug/ml, 0, 2, 4, 6 and 18 hours post-Brefeldin A, Example 4, FIGS. 6 and 7): significant improvement in their HLA-A2 affinity at all the time points evaluated
- HLA-A2 affinity and stability at each time point, compared with HIV-Gag77-85 positive control ([1]; Example 12): highest level of HLA-A2 affinity and stability
- total CD45RO+ memory CTL ([2]; 3′ stimulation): 15.3%
- total CD45RO+ memory CTL ([2]; 4′ stimulation): 19.5%
- total CD45RO+ memory CTL ([2]; 5′ stimulation): 79.0%
- central memory (CM) CD8+ T cell subset ([2]; after 1 cycle of stimulation): 2.9%
- effector memory (EM) CD8+ T cell subset ([2]; after 1 cycle of stimulation): 5.7%
- central memory (CM) CD8+ T cell subset ([2]; after 3 cycles of stimulation): 12.4%
- effector memory (EM) CD8+ T cell subset ([2]; after 3 cycles of stimulation): 11.0%
- central memory (CM) CD8+ T cell subset [2, 3]: 3.5%
- effector memory (EM) CD8+ T cell subset [2, 3]: 95.4%
